What was measured:
Assay in all cases: relative viability (nuclei count vs DMSO), 5 days (fraction); higher = more cells survive
NCI-H2087 = system: NCI-H2087
Summary of the method: (§1)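 Cells from lung cancer lines were seeded into 1536-well plates and, one day later, dosed by pin tool. Treatments were either a single drug or a fixed dose of an anchor drug with five library-drug doses (not always all listed) in √10 steps. After 5 days, nuclei were stained in a one-step fixation (final 0.05% Triton X-100, 1% formaldehyde, 1 ug/ml Hoechst) and counted on 4× images, and relative viability is the treated-to-vehicle nuclei ratio, as the median of duplicate plates.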

ABC-1 = system: ABC-1
Summary of the method: as §1

NCI-H727 = system: NCI-H727
Summary of the method: as §1

H3255 = system: H3255
Summary of the method: as §1

NCI-H647 = system: NCI-H647
Summary of the method: as §1

NCI-H661 = system: NCI-H661
Summary of the method: as §1

NCI-H520 = system: NCI-H520
Summary of the method: as §1

NCI-H1650 = system: NCI-H1650
Summary of the method: as §1

EPLC-272H = system: EPLC-272H
Summary of the method: as §1

LCLC-103H = system: LCLC-103H
Summary of the method: as §1

HCC-44 = system: HCC-44
Summary of the method: as §1

EKVX = system: EKVX
Summary of the method: as §1

NCI-H1792 = system: NCI-H1792
Summary of the method: as §1

COR-L23 = system: COR-L23
Summary of the method: as §1

UMC-11 = system: UMC-11
Summary of the method: as §1

201T = system: 201T
Summary of the method: as §1

COR-L 105 = system: COR-L 105
Summary of the method: as §1

NCI-H1651 = system: NCI-H1651
Summary of the method: as §1

NCI-H358 = system: NCI-H358
Summary of the method: as §1

HCC-827 = system: HCC-827
Summary of the method: as §1

NCI-H838 = system: NCI-H838
Summary of the method: as §1

HCC-15 = system: HCC-15
Summary of the method: as §1

NCI-H1975 = system: NCI-H1975
Summary of the method: as §1

NCI-H1437 = system: NCI-H1437
Summary of the method: as §1

With `CCCCCCCCCCCC1=C(O)C(=O)C=C(O)C1=O` [Embelin] + C[C@@H](Oc1cc(-c2cnn(C3CCNCC3)c2)cnc1N)c1c(Cl)ccc(F)c1Cl [Crizotinib] (partner 1 µM) the relative viability (NCI-H2087; first compound 0.08 µM) was 0.886, the relative viability (NCI-H2087; first compound 0.8 µM) was 0.899 and the relative viability (NCI-H2087; first compound 2.53 µM) was 0.766. It also gave a relative viability (NCI-H2087; first compound 8 µM) of 0.937, a relative viability (ABC-1; first compound 0.08 µM) of 0.896 and a relative viability (ABC-1; first compound 0.8 µM) of 1.26. For the same compound, the relative viability (ABC-1; first compound 2.53 µM) was 1.7, the relative viability (ABC-1; first compound 8 µM) was 1.21 and the relative viability (NCI-H727; first compound 0.08 µM) was 0.938. The relative viability (NCI-H727; first compound 0.8 µM) was 0.924, the relative viability (NCI-H727; first compound 2.53 µM) was 1.06 and the relative viability (NCI-H727; first compound 8 µM) was 0.898. It also gave a relative viability (H3255; first compound 0.08 µM) of 0.86, a relative viability (H3255; first compound 0.8 µM) of 0.979 and a relative viability (H3255; first compound 2.53 µM) of 0.875. It also gave a relative viability (H3255; first compound 8 µM) of 1.03, a relative viability (NCI-H647; first compound 0.08 µM) of 1.44 and a relative viability (NCI-H647; first compound 0.8 µM) of 1.08. The relative viability (NCI-H647; first compound 2.53 µM) was 1.48, the relative viability (NCI-H647; first compound 8 µM) was 1.17 and the relative viability (NCI-H661; first compound 0.08 µM) was 1.09. For the same compound, the relative viability (NCI-H661; first compound 0.8 µM) was 1.09, the relative viability (NCI-H661; first compound 2.53 µM) was 0.846 and the relative viability (NCI-H661; first compound 8 µM) was 0.997. It also gave a relative viability (NCI-H520; first compound 0.08 µM) of 0.894, a relative viability (NCI-H520; first compound 0.8 µM) of 1 and a relative viability (NCI-H520; first compound 2.53 µM) of 1.07. It also gave a relative viability (NCI-H520; first compound 8 µM) of 0.782, a relative viability (NCI-H1650; first compound 0.08 µM) of 0.954 and a relative viability (NCI-H1650; first compound 0.8 µM) of 1.04. It also gave a relative viability (NCI-H1650; first compound 2.53 µM) of 0.981, a relative viability (NCI-H1650; first compound 8 µM) of 1.16 and a relative viability (EPLC-272H; first compound 0.08 µM) of 0.802. It also gave a relative viability (EPLC-272H; first compound 0.8 µM) of 1.08, a relative viability (EPLC-272H; first compound 2.53 µM) of 1.4 and a relative viability (EPLC-272H; first compound 8 µM) of 0.765. For the same compound, the relative viability (LCLC-103H; first compound 0.08 µM) was 1.06, the relative viability (LCLC-103H; first compound 0.8 µM) was 1.01 and the relative viability (LCLC-103H; first compound 2.53 µM) was 1.08. For the same compound, the relative viability (LCLC-103H; first compound 8 µM) was 0.959, the relative viability (HCC-44; first compound 0.08 µM) was 0.771 and the relative viability (HCC-44; first compound 0.8 µM) was 0.803. It also gave a relative viability (HCC-44; first compound 2.53 µM) of 0.826, a relative viability (HCC-44; first compound 8 µM) of 0.829 and a relative viability (EKVX; first compound 0.08 µM) of 0.78. The relative viability (EKVX; first compound 0.8 µM) was 1.05, the relative viability (EKVX; first compound 2.53 µM) was 1.07 and the relative viability (EKVX; first compound 8 µM) was 1.07. The relative viability (NCI-H1792; first compound 0.08 µM) was 0.997, the relative viability (NCI-H1792; first compound 0.8 µM) was 0.974 and the relative viability (NCI-H1792; first compound 2.53 µM) was 1.19. The relative viability (NCI-H1792; first compound 8 µM) was 0.964, the relative viability (COR-L23; first compound 0.08 µM) was 0.691 and the relative viability (COR-L23; first compound 0.8 µM) was 0.762. The relative viability (COR-L23; first compound 2.53 µM) was 0.701, the relative viability (COR-L23; first compound 8 µM) was 0.745 and the relative viability (UMC-11; first compound 0.08 µM) was 0.639. For the same compound, the relative viability (UMC-11; first compound 0.8 µM) was 0.618, the relative viability (UMC-11; first compound 2.53 µM) was 0.644 and the relative viability (UMC-11; first compound 8 µM) was 0.572. For the same compound, the relative viability (201T; first compound 0.08 µM) was 1.02, the relative viability (201T; first compound 0.8 µM) was 1.07 and the relative viability (201T; first compound 2.53 µM) was 1.04. The relative viability (201T; first compound 8 µM) was 1.06, the relative viability (COR-L 105; first compound 0.08 µM) was 0.727 and the relative viability (COR-L 105; first compound 0.8 µM) was 0.932. For the same compound, the relative viability (COR-L 105; first compound 2.53 µM) was 0.875, the relative viability (COR-L 105; first compound 8 µM) was 1.04 and the relative viability (NCI-H1651; first compound 0.08 µM) was 0.855. It also gave a relative viability (NCI-H1651; first compound 0.8 µM) of 0.843, a relative viability (NCI-H1651; first compound 2.53 µM) of 0.988 and a relative viability (NCI-H1651; first compound 8 µM) of 0.837. For the same compound, the relative viability (NCI-H358; first compound 0.08 µM) was 0.635, the relative viability (NCI-H358; first compound 0.8 µM) was 0.851 and the relative viability (NCI-H358; first compound 2.53 µM) was 0.547. The relative viability (NCI-H358; first compound 8 µM) was 0.791, the relative viability (HCC-827; first compound 0.08 µM) was 0.98 and the relative viability (HCC-827; first compound 0.8 µM) was 0.931. For the same compound, the relative viability (HCC-827; first compound 2.53 µM) was 0.976, the relative viability (HCC-827; first compound 8 µM) was 0.977 and the relative viability (NCI-H838; first compound 0.08 µM) was 0.874. It also gave a relative viability (NCI-H838; first compound 0.8 µM) of 0.995, a relative viability (NCI-H838; first compound 2.53 µM) of 0.961 and a relative viability (NCI-H838; first compound 8 µM) of 1.02. It also gave a relative viability (HCC-15; first compound 0.08 µM) of 0.779, a relative viability (HCC-15; first compound 0.8 µM) of 0.852 and a relative viability (HCC-15; first compound 2.53 µM) of 1. The relative viability (HCC-15; first compound 8 µM) was 0.907, the relative viability (NCI-H1975; first compound 0.08 µM) was 1.1 and the relative viability (NCI-H1975; first compound 0.8 µM) was 0.999. It also gave a relative viability (NCI-H1975; first compound 2.53 µM) of 1, a relative viability (NCI-H1975; first compound 8 µM) of 1.04 and a relative viability (NCI-H1437; first compound 0.08 µM) of 0.988. For the same compound, the relative viability (NCI-H1437; first compound 0.8 µM) was 0.898, the relative viability (NCI-H1437; first compound 2.53 µM) was 1.01 and the relative viability (NCI-H1437; first compound 8 µM) was 0.452.

Source: the supplement of paper PMC10307832
